US9737502B2, “Calebin A for hepatic steatosis” (SAMI LABS LIMITED, priority 2011, dated 2017)

How the values were obtained:
[1] = Study I: HFD-fed mice, diet supplementation 12 weeks; body weight, food intake, relative organ weights; details: for wt gain / Final wt / relative organ weight: Kidney / relative organ weight: liver: 12 weeks; for wt gain: HFD 16.50 ± 2.90; for Final wt: HFD 38.63 ± 3.92; for relative organ weight: Kidney / relative organ weight: liver: percentage of body weight; for Initial wt: baseline
Procedure: Male C57BL/6J mice at 5 weeks of age were purchased from the BioLASCO Experimental Animal Center (Taiwan Co., Ltd., Taipei, Taiwan) and housed in a controlled atmosphere (25±1° C. at 50% relative humidity) and with a 12-h light/12-h dark cycle. […] Animals had free access to food and water at all times. Food cups were replenished with fresh diet daily. The diet intake of animals was monitored every day and the body weight was recorded weekly. […] At the end of the study, all animals were fasted overnight and sacrificed by CO2 asphyxiation. Blood samples were collected from the heart for biochemical analysis. Liver, spleen, kidney and fat pads (perigonadal, retroperitoneal and mesenteric fat) were immediately removed, weighed (TABLE VI) and photographed. […] Body weight was monitored weekly, and the average body weight of each group was expressed as the mean±SE. Statistical analysis was done by Student's t test. (*) P<0.01, compared with ND group; (#) P<0.01, compared with HFD group.

TNF-α [2] = experiment: Intracellular TNF-α in LPS-stimulated murine neutrophils (flow cytometry); type: cell-based; details: for Expression of TNF-α Mean ± S.E: LPS Control 2.62 ± 0.01
Procedure: The present inventors also adduce extra evidence to support the ability of Calebin A to suppress intracellular TNF and extracellular IL-1β in murine neutrophil systems (Table II, Table III). Neutrophils are isolated by histopaque gradient method tested for their ability to produce in vitro TNF-α following stimulation with Lipopolysaccharide (LPS). The cells were incubated with phycoerythrin (PE)-labeled anti-mouse TNF-α in the dark, and after being washed with sterile PBS, samples were resuspended in PBS (pH 7.4) and acquired directly on the flow cytometer (BDLSR; Becton Dickinson). A fluorescence trigger was set on the PE […] parameter of the gated neutrophil populations (10,000 events). Rolipram at 100 μg/ml was used as standard inhibitor of TNF-α in this study. Fluorescence compensation, data analysis, and data presentation were performed using Cell Quest Pro software (Becton Dickinson).

TNF-α [3] = experiment: Serum TNF-α in LPS-injected mice after 6 days oral treatment (ELISA); type: in vivo, Swiss albino mice; details: graded doses, then LPS 1 mg/kg i.v., serum 90 min after LPS
Procedure: The present inventors also adduce study data on the ability of Calebin A to reduce expression of Extracellular TNF-α, IL-1 beta [FIG. 6] and IL-6 [FIG. 7] in serum from treated mice (in-vivo models). Swiss albino male mice aged 6-8 weeks were maintained at 22±2° C. under 12/12 h light dark cycle. Mice received oral treatment of test drugs at graded doses (w/v) for 6 days, followed by intravenous injection of 1 mg/kg of LPS according to the method described by Brieva A, Guerrero A, Alonso-Lebrero J L and Pivel J P. 2001. Immunoferon, a glycoconjugate of natural origin, inhibits LPS-induced TNF-α production and inflammatory responses. International Immunopharmacology 1, 1979-1987. Six mice were employed in each group and experiments were performed in triplicates. TNF-α, IL-1 beta and IL-6 production was evaluated by a commercial ELISA kits (R&D Systems) in serum from treated mice, 90 min after LPS injection. Rolipram at 30 mg/kg was used as standard drug.

COc1cc(/C=C/C(=O)COC(=O)/C=C/c2ccc(O)c(OC)c2)ccc1O [Calebin A]
wt gain ([1]; HFD + 0.25% Calebin A): 13.02 ± 2.52 g
Final wt ([1]; HFD + 0.25% Calebin A): 35.28 ± 2.38 g
relative organ weight: Kidney ([1]; HFD + 0.25% Calebin A): 1.22 ± 0.12%
relative organ weight: liver ([1]; HFD + 0.25% Calebin A): 4.05 ± 0.28%
Initial wt ([1]; HFD + 0.25% Calebin A): 22.27 ± 0.49 g
wt gain ([1]; HFD + 1% Calebin A): 10.12 ± 2.48 g
Final wt ([1]; HFD + 1% Calebin A): 31.99 ± 2.50 g
relative organ weight: Kidney ([1]; HFD + 1% Calebin A): 1.30 ± 0.15%
relative organ weight: liver ([1]; HFD + 1% Calebin A): 4.00 ± 0.25%
Initial wt ([1]; HFD + 1% Calebin A): 21.88 ± 0.91^ g
% Activity (suppression of TNF-α expression) (TNF-α [2]; 0.5 μg/ml): 28.62%↓
Expression of TNF-α Mean ± S.E (TNF-α [2]; 0.5 μg/ml): 1.87 ± 0.04
% Activity (suppression of TNF-α expression) (TNF-α [2]; 1.0 μg/ml): 35.11%↓
Expression of TNF-α Mean ± S.E (TNF-α [2]; 1.0 μg/ml): 1.70 ± 0.02
% Activity (suppression of TNF-α expression) (TNF-α [2]; 2.0 μg/ml): 39.31%↓
Expression of TNF-α Mean ± S.E (TNF-α [2]; 2.0 μg/ml): 1.59 ± 0.05
expression of TNF-α in serum (TNF-α [3]): effective in reducing
